Laboratory results as given in patent publication US8158621B2, “Methods of treating or preventing autoimmune diseases with 2,4-pyrimidinediamine compounds” (Rigel Pharmaceuticals, Inc., priority 2002, dated 2012).
pIC50: −log10 of the molar value.

What was measured:
[1] = system: cultured human mast cells (CHMC); assay: CHMC low cell density ionomycin activation: tryptase assay; type: cell-based
[2] = system: Human Jurkat T-cells (clone N); assay: Jurkat T-cell activation (anti-TCR, CD69 upregulation); type: cell-based
Procedure, shortened: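 Readout is CD69 upregulation by flow cytometry (anti-CD69-APC, 20 min at 4 °C) after 20 h anti-TCR (C305, 500 ng/ml) stimulation at 37 °C.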

[3] = system: cultured human mast cells (CHMC); assay: CHMC high cell density IgE activation: TNFalpha; type: cell-based; conditions: read-out: CHMC high density TNF-alpha
Description: (§1) After sensitizing, cells are counted, pelleted (1000 rpm, 5-10 minutes), and resuspended at 1-2 ×10^6 cells/ml in MT buffer. Add 100 ul of cell suspension to each well and 100 ul of compound dilutions. The final vehicle concentration is 0.5% DMSO. Incubate at 37° C. (5% CO2) for 1 hour. After 1 hour of compound treatment, stimulate cells with 6× anti-IgE. Mix wells with the cells and allow plates to incubate at 37° C. (5% CO2) for one hour. After 1 hour incubation, pellet cells (10 minutes, 1000 RPM) and collect 200 ul per well of the supernatant, being careful not to disturb pellet. Place the supernatant plate on ice. During the 7-hour step (see next) perform tryptase assay on supernatant that had been diluted 1:500. Resuspend cell pellet in 240 ul of CM media containing 0.5% DMSO and corresponding concentration of compound. Incubate CHMC cells for 7 hours at 37° C. (5% CO2). After incubation, pellet cells (1000 RPM, 10 minutes) and collect 225 ul per well and place in −80° C. until ready to perform ELISAS. ELISAS are performed on appropriately diluted samples (determined empirically for each donor cell population so that the sample measurement falls within the standard curve) following the supplier's instructions.

[4] = system: cultured human mast cells (CHMC); assay: CHMC high cell density IgE activation: hexos; type: cell-based
Description: as §1
Add 50 uL of BMMC cell supernatant (see above) to the hexoseaminidase substrate, place at 37° C. for 30 minutes and read the plate at 5, 10, 15, and 30 minutes on a spectrophotometer.

[5] = system: cultured human mast cells (CHMC); assay: CHMC high cell density IgE activation: histamine; type: cell-based
Description: as §1

[6] = system: cultured human mast cells (CHMC); assay: CHMC high cell density IgE activation: LTC4; type: cell-based
Description: as §1

[7] = system: cultured human mast cells (CHMC); assay: CHMC low cell density IgE activation: tryptase assay; type: cell-based; conditions: Low Density; read-out: CHMC anti-IgE Tryptase
Procedure, shortened: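 Read-out: tryptase released into supernatant, measured by substrate turnover over 30 min at RT. Low-density CHMC (1000-1500 cells/well, per donor degranulation activity) in MT buffer, 1 hr at 37° C, then anti-IgE challenge 30 min at 37° C.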

[8] = system: cultured human mast cells (CHMC); assay: CHMC high cell density IgE activation: tryptase; type: cell-based
Description: as §1

[9] = system: cultured human mast cells (CHMC); assay: CHMC high cell density IgE activation: IL-13; type: cell-based
Description: as §1

Syk kinase = target: T1, Syk kinase (Homo sapiens, UniProt P43405); assay: Syk kinase biochemical fluorescence polarization assay; conditions: isolated Syk kinase, fluorescence polarization, 4 uM ATP
T1 construct: purchased Upstate, Lake Placid NY

[10] = system: basophil cells (human peripheral blood); assay: Basophil ionomycin activation: histamine release assay; type: cell-based; conditions: basophils, ionomycin activation, histamine release; read-out: Basophils Ionomycin Histamine IC50
Description: The basophil activation assay was carried out using whole human peripheral blood from donors allergic to dust mites with the majority of the red blood cells removed by dextran sedimentation. Human peripheral blood was mixed 1:1 with 3% dextran T500 and RBCs were allowed to settle for 20-25min. The upper fraction was diluted with 3 volumes of D-PBS and cells were spun down for 10 min at 1500 rpm, RT. Supernatant was aspirated and cells were washed in an equal volume MT-buffer. Finally, cells were resuspended in MT-buffer containing 0.5% DMSO in the original blood volume. 80 uL cells were mixed with 20 uL compound in the presence of 0.5% DMSO, in triplicate, in a V-bottom 96-well tissue culture plate. A dose range of 8 compound concentrations was tested resulting in a 10-point dose response curve including maximum (stimulated) and minimum (unstimulated) response. […] The cells were stimulated for 30 minutes at 37° C., 5% CO2. The plate was spun for 10 min at 1500 rpm at room temperature and 80 uL the supernatant was harvested for histamine content analysis using the histamine ELISA kit supplied by Immunotech. The ELISA was performed according to supplier's instructions.
Assays for ionomycin-induced basophil cell degranulation were carried out as described for the Basophil IgE or Dustmite Activation Assay (Section 7.5.5, supra), with the exception that following incubation with compound, cells were stimulated with 20 μl of 2 μM ionomycin.

[11] = system: IgE-induced degranulation of tissue mast cells; assay: Mouse model of passive cutaneous anaphylaxis (PCA); type: in vivo; conditions: oral route in a PEG-based formulation (data not shown)
Description: This model provides a direct measure of IgE-induced degranulation of tissue mast cells. In this model, IgE primed animals are exposed to an allergen challenge, and the change in permeability of dermal vasculature that results from histamine release from mast cells is measured by change in the amount of dye leakage into surrounding tissue. Inhibition of mediator release by compounds that modulate mast cell degranulation is easily measured by extracting the dye from the tissue.
In the PCA assay mice are passively sensitized by intradermal injection with anti-dinitrophenol (DNP) IgE antibodies (Day −1). At predetermined times animals are treated with the test agent (Day 0). The modulatory effect of the agent on cutaneous mast cell degranulation is measured following intravenous injection of DNP conjugated to human serum albumin (HSA-DNP), together with Evans blue dye. The resulting cross-linking of the IgE receptor and subsequent mast cell degranulation-induced increase in vascular permeability is determined by measuring the amount of dye extravasation into the tissue. Dye is extracted from the tissue by formamide, and the absorbance of this extract is read at 620 nm.

[12] = Sheep model of allergic asthma; type: in vivo
Description: In the sheep model of allergic asthma, sheep are administered aerosols of test article via an endotracheal tube, followed by an aerosol challenge with antigen extracted from the roundworm, Ascaris suum, to which the sheep are naturally allergic. Allergen challenge leads to direct bronchoconstriction (both EAR and LAR) and a persistent non-specific AHR. These three characteristics are similar to those seen in human allergic asthmatics. The activity of the test agent is determined by changes in the lung resistance (RL), which is calculated from measurements of transpulmonary pressure, flow, and respiratory volume. […] The LAR is a less pronounced increase in RL, which starts approximately 5-6 hours following allergen challenge and is resolved by 8 hours post-challenge. Twenty-four hours after the challenge, a dose response to carbachol is measured to determine the AHR, which is expressed as the dose of carbachol required to increase RL by 400% over baseline. (This measurement is referred to as the provocative concentration of carbachol that elicits a 400% increase in RL over baseline (PC400). The data are compared to historical control data for the same individual when administered a saline control aerosol and challenged with Ascaris suum.

Primary T-cells = assay: Primary T-cell cytokine production (αCD3/αCD28): IL-2; type: cell-based, human; conditions: read-out: 1° T-Cell IL2 IC50
Description: 2E8-4E8 PBMC or proliferating T cells grown in rIL-2 from healthy human donors were suspended in PBS were spun down (1500 rpm, 8-10 minutes) and resuspended in 100 ml RPMI Complete media (1% Pen-Strep, 1% L-Glutamine, 10 mM HEPES). The cells were plated in T175 flasks (37° C., 5% CO2) and monocytes were allowed to adhere for 2-3 hours. After monocyte attachment, non-adherent cells were harvested, counted by hemocytometer, washed several times with PBS then resuspended in Yssels Complete Media (Modified IMDM Media with 1% Human AB Serum, 1% Pen-Strep, 1% L-Glutamine, 10 mM HEPES) at […]. 90 uL of the cell dilution were then added to compounds diluted to 2× in Yssel's media and incubated for 30 minutes at 37° C. (5% CO2). After this preincubation step the compound/cell mixture was transferred to stimulation plates, as described below.
Stimulation plates were prepared by coating 96 well plates with 5 μg/ml αCD3 (BD PharMingen, Catalog #555336)+10 μg/ml αCD28 (Beckman Coulter, Catalog #IM1376) in PBS (no Ca^2+/Mg^2+) at 37° C. (5% CO2) for at 3-5 hours. After incubation with the stimulation antibodies, the cocktail was removed and the plates washed 3 times with PBS prior to addition of the primary T cell/compound mixture.
The compound/cell mixture was transferred to the stimulation plates and incubated for 18 hr at 37° C. (5% CO2). After the cell stimulation, ˜150 μl supernatant were transferred from each well into 96-well filter plates (Coming PVDF Filter Plates) spun down (2000 rpm, 2-3 minutes) and either used immediately for ELISA or LUMINEX measurements or frozen down at −80° C. for future use.
IL-2 ELISAs were performed using the Quantikine Human IL-2 ELISA kit (R&D Systems, Catalog # D2050) as described by the manufacturer and absorption was measured on a spectrophotometer at 450 nm wavelength. Blank values were substracted and absorbances were converted to pg/mL based on the standard curve.
Luminex immunoassay multiplexing for TNF, IL-2, GMSCF, IL-4 and IFNg was performed essentially as described by the manufacturer (Upstate Biotechnology). Essentially 50 uL of sample was diluted into 50 uL assay diluent and 50 uL incubation buffer, then incubated with 100 uL of the diluted detection antibody for 1 hr at RT in the dark. The filter plate was washed 2× in Wash Buffer, then incubated with 100 uL of the diluted secondary reagent (SAV-RPE) for 30 min at RT in the dark. Finally the plates were washed 3 times and bead identification and RPE fluorescent measured by the Luminex instrument.
Varied concentrations of compound were compared to solvent only to determine the inhibition of T-cell activation IC50 of each compound.

[13] = Low Density, read-out: CHMC Ionomycin Tryptase
[14] = dose, pretreatment and vehicle per compound as in TABLE 5

| Compound | pIC50 [1, 13] | pIC50 [2] | pIC50 [3] | pIC50 [4] | pIC50 [5] | pIC50 [6] | pIC50 [7] | pIC50 [8] | pIC50 [9] | pIC50 ([1]; Low Density CHMC, ionomycin activation, tryptase release, read-out: CHMC Ionomycin Tryptase IC50) | pIC50 (Syk kinase) | pIC50 [10] | PCA response [11] | EAR ([12]; administered in an aqueous suspension) | LAR and AHR [12, 14] | pIC50 (Primary T-cells) | EAR [12, 14] |
| --- | --- | --- | --- | --- | --- | --- | --- | --- | --- | --- | --- | --- | --- | --- | --- | --- | --- |
| Nc1cc(Cl)cc(Nc2ncc(F)c(Nc3cc(N)cc(Cl)c3)n2)c1 [Compound R950141] | < 5.00 | 5.62 | 5.98 | 6.25 | 6.20 | 6.70 | 6.51 | 6.21 | 6.10 | – | – | – | – | – | – | – | – |
| OCc1cc2cc(Nc3ncc(F)c(Nc4cccc(O)c4)n3)ccc2[nH]1 [Compound R926700] | – | 6.29 | > 5.96 | > 5.96 | > 5.96 | > 5.96 | – | > 5.96 | 5.69 | < 5.00 | – | – | – | – | – | – | – |
| O=C(c1cc2cc(Nc3ncc(F)c(Nc4cccc(O)c4)n3)ccc2o1)N1CCNCC1 [Compound R926502] | – | 5.79 | – | < 5.70 | < 5.70 | – | – | < 5.70 | < 5.70 | – | 6.66 | < 5.00 | – | – | – | – | – |
| Cc1cc(Nc2ncc(F)c(Nc3cc(C)c(O)c(Cl)c3)n2)cc(Cl)c1O [Compound R940216] | 5.14 | 5.89 | 5.50 | > 5.96 | 5.93 | > 5.96 | 6.57 | > 5.96 | 5.52 | – | – | – | – | – | – | – | – |
| CNC(=O)COc1cccc(Nc2ncc(C(F)(F)F)c(Nc3cccc(O)c3)n2)c1 [Compound R926742] | – | – | – | – | – | – | – | – | – | – | 7.12 | < 5.00 | able to inhibit the PCA response | failed to inhibit | blocked | 6.14 | – |
| CNC(=O)COc1cccc(Nc2ncc(F)c(Nc3ccc4c(c3)OCCO4)n2)c1 [Compound R926495] | – | 4.92 | – | – | – | – | – | – | – | – | – | < 5.00 | – | – | blocked | 6.19 | greatly reduced |
